By mortality is commonly meant the share of the test organisms that died. A higher mortality goes with fewer survivors. What is called LD50 is the dose at which mortality reaches 50%.

Series [1] has as its system Acanthoscelides obtectus. Put plainly: Impregnated filter paper disc contact test, mortality (Table 1). It counts as in vivo, bean weevil (Acanthoscelides obtectus), imago. The conditions noted are these: for mortality at 20 µg/disc / mortality at 70 µg/disc / mortality at 220 µg/disc / mortality at 670 µg/disc / mortality at 2000 µg/disc / mortality at 6000 µg/disc: Acanthoscelides obtectus, 24 hours, Abbot corrected; for mortality at 20 µg/disc: 0.02 mg/disc; for mortality at 70 µg/disc: 0.07 mg/disc; for mortality at 220 µg/disc: 0.22 mg/disc; for mortality at 670 µg/disc: 0.67 mg/disc; for mortality at 2000 µg/disc: 2.0 mg/disc; for mortality at 6000 µg/disc: 6.0 mg/disc. The protocol:
(§1) The stereoisomers are dissolved in a 1:2 mixture of mineral oil and acetone and filter paper discs (Whatman No. 1., diameter 9 cm) are impregnated with the corresponding dosage of the solution of the active ingredient. The acetone is allowed to evaporate and the insects are examined on filter paper discs placed into Petri-dishes. Three parallels are used for each dose and 15 animals are placed in each Petri-dish. Mortality rate is determined after 24 hours. The corrected mortality % data are calculated by means of the Abbot formula.

The subject of series [2] is T. confusum. Put plainly: Filter paper contact test with piperonyl butoxide (Table 7). It counts as in vivo, confused flour-beetle (T. confusum), imagos. The conditions noted are these: for mortality at 25 µg/disc / mortality at 50 µg/disc / mortality at 100 µg/disc / mortality at 200 µg/disc / mortality at 400 µg/disc: Tribolium confusum, 24 h, PBO, where added, 0.5 mg/disc; for mortality at 25 µg/disc: 0.025 mg/disc; for mortality at 50 µg/disc: 0.05 mg/disc; for mortality at 100 µg/disc: 0.1 mg/disc; for mortality at 200 µg/disc: 0.2 mg/disc; for mortality at 400 µg/disc: 0.4 mg/disc. The protocol: as §1
T. confusum (confused flour-beetle) imagos are treated according to Example 20 and percental mortality is determined after 24 hours. The dose of piperonyl butoxide (referred to furtheron as "[…]") amounts to 0.5 mg/disc The results are disclosed in Table 7.

The test system of series [3] is Acanthoscelides obtectus. The experiment in a line: 5 EC formulations sprayed on glass plates (Table 21). It counts as in vivo, bean weevil (Acanthoscelides obtectus), imagos. The conditions noted are these: 5 EC formulation, 24 hours. The protocol: The 5 EC formulations prepared according to Example 42 are diluted 50x, 100x, 200x, 400x, 800x and 1600x with water and 0.5 ml doses are sprayed onto glass plates. After drying 10 L. decemlineata imagos are placed on each glass plate and the insects are covered with Petri-dishes. The tests are carried out by using 6 doses and 3 parallels for each dose. The killed insects are counted after 48 hours.
Glass plates are sprayed with 5 EC formulations prepared according to Example 42 in an analogous manner to Example 52. After drying 10 bean weevil (Acanthoscelides obtectus) imagos are placed on each plate and the insects are covered with Petri-dishes. The killed insects are counted after 24 hours. The test is carried out with 6 doses by using 3 parallels for each dose.

Series [4] concerns Leptinotarsa decemlineara larvae. The experiment in a line: Paralysis of larvae on sprayed tomato plants (Table 23). It counts as in vivo, L3 stage larvae. The conditions noted are these: 6 hours. As to the method: Tomato plants pre-cultivated in pots are sprayed with a suspension of the active ingredient formed with a mixture of acetone and water. The treated plants are placed into isolators and infected with L3 stage Leptinotarsa decemlineara larvae. The percental ratio of paralyzed larvae which fall down from the plants is determined after 6 hours.

In a further series the test system is house fly. The experiment in a line: Topical LD50 on house fly (mg/kg). It counts as in vivo. The conditions noted are these: Musca domestica, approximate, topically. The text has this:
The said selectivity index of the enantiomer-pair Ia amounts to 50/0.45=111.
In addition to the synergistic effect the composition of the present invention has a number of further advantages too and for this reason it is an outstanding product. It is very important that the compositions of the present invention are less toxical towards mammals than the hitherto known compositions of similar efficiency. […] The said selectivity index of Ia amounts to 50/0.45=111.

The test system of series [5] is T. confusum. The experiment in a line: Topical LD50 (Table 3). It counts as in vivo, 1-2 weeks' old imagos. As to the method: In Table 3 the LD50 values of the Ig and Ii isomers and those of the Ib isomer-pair are disclosed. The data are topically measured.
The active ingredients are dissolved in 2-ethoxyethanol (cellosolve) and 0.3 μl droplets of the solutions are applied onto the dorsal cuticulum of 3-5 days' old female house flies. 10 animals are used and 2 parallels are carried out for each dose. The tests are carried out for 5 dose levels between activity limits of 0% and 100%. After treatment the flies are placed into glass vials. Mortality is determined after 24 hours. Data are transformed to log10 dosage and probit mortality. LD50 and confidence interval values are calculated by linear regression analysis of the log-probit data. The expected values required for the calculation of synergism are obtained by means of harmonic average. The synergistic factor is the quotient of the expected and measured values.
The active ingredients are dissolved in 2-ethoxyethanol and 0.3 μl droplets of the solutions are applied onto the abdominal side of 1-2 weeks' old imagos. Treatment is carried out with 2 parallels and 20 animals for each dose by using 5 dose levels in the range between activity limits of 0% and 100%. Evaluation and determination of LD50 values and synergistic factors are carried out as described in Example 21.

The subject of another series is A. matricariae. The experiment in a line: Direct contact test of pupae (Table 5). It counts as in vivo. As to the method:
Mature pupae of A. matricariae on paprika leaves in Petri dishes are exposed to a direct spray of the active ingredients.
Two or three days before emergence paprika leaves with parasitized pupae are used. The leaves are laid on filter paper in a plastic Petri dish The filter paper is moistened.
Application of treatment: See Example 23.
The pieces of leaf are transferred after treatment to clean Petri dish bottoms The trays are stored in a clinic chamber at 20° C. temperature, 70% relative humidity and a light-dark cycle of […]. Surviving pupae hatch after 2-3 days. The numbers of hatched and dead pupae are counted.

For a further series, the system named is Hyphantria cunea. The experiment in a line: Topical test on fall webworm (Table 8). It counts as in vivo, L7-L8 larvae. The conditions noted are these: 24 h. The protocol:
The active ingredients are dissolved in 2-ethoxyethanol and the solutions are applied in the form of 0.2 μl droplets onto the back of fall webworm (Hyphantria cunea) of L7 -L8 larvae stage. The treated worms are placed on strawberry leaves in Petri-dishes. The test is carried out by using 5 doses; 2 parallels and 10 insects for each dose.

In series [6] the test system is Acanthoscelides obtectus. Put plainly: 5 EC formulation, insecticidal effect on bean weevil (Table 10). It counts as in vivo, bean weevil (Acanthoscelides obtectus), imagos. The conditions noted are these: 24 hours. The protocol: From a 5 EC formulation according to Example 17 50-, 100-, 200-, 400-, 800- and 1600-fold diluted emulsions are prepared by diluting with water. 0.5 ml of the emulsions are sprayed onto glass plates whereupon after drying 10 Colorado beetles (L. decemlineata) imagos are placed on each glass plate and the insects are covered. The tests are carried out with 6 doses by carrying out 3 parallels for each dose. The killed insects are counted after 48 hours and the percental mortality rate is calculated.
The insecticidal effect is tested on been weevil (Acanthoscelides obtectus) imagos. The killed insects are counted after 24 hours and the percental mortality rate is calculated.

For `CC1(C)[C@H](C(=O)O[C@H](C#N)c2cccc(Oc3ccccc3)c2)[C@@H]1C=C(Cl)Cl` (relative stereo) [Ia], in the series on Acanthoscelides obtectus [1], the mortality at 20 µg/disc was 10%, the mortality at 70 µg/disc came to 37%, the mortality at 220 µg/disc came to 63% and the mortality at 670 µg/disc was found to be 100%. In the series with Acanthoscelides obtectus [1], this molecule gave a mortality at 2000 µg/disc of 100% and a mortality at 6000 µg/disc of 100%. In the series on T. confusum [2], this molecule registered a mortality at 25 µg/disc of 0%, a mortality at 50 µg/disc of 0%, a mortality at 100 µg/disc of 12% and a mortality at 200 µg/disc of 53%. For the same molecule, the mortality at 400 µg/disc with T. confusum [2] turned out to be 96%. In addition, in the series with Acanthoscelides obtectus [3] (dilution 50x), the Mortality % is given as 70%. In the series on Acanthoscelides obtectus [3] (dilution 100x), this molecule had a Mortality % of 50%. The molecule further registered a Mortality % in the series on Acanthoscelides obtectus [3] (dilution 200x) of 33%. For the same molecule, the Mortality % in the series with Acanthoscelides obtectus [3] (dilution 400x) is on record as 27%. This molecule also displayed a Mortality % with Acanthoscelides obtectus [3] (dilution 800x) of 13%. The molecule also registered a Mortality % in the series on Acanthoscelides obtectus [3] (dilution 1600x) of 0%. Further, the “% ratio of paralyzed larvae” value in [4] (8 ppm) is 18%. Moreover, in series [4] (40 ppm), the “% ratio of paralyzed larvae” value is listed as 46%. Also, in [4] (200 ppm), the “% ratio of paralyzed larvae” value is 100%. Besides, the “% ratio of paralyzed larvae” value in series [4] (1000 ppm) was determined as 100%. For the same molecule, the median lethal dose (LD50) in the series with house fly is about 0.45 mg/kg.

On to `CC1(C)[C@H](C=C(Cl)Cl)[C@H]1C(=O)O[C@H](C#N)c1cccc(Oc2ccccc2)c1` (relative stereo) [Ib], for which, in the series on Acanthoscelides obtectus [1], the mortality at 20 µg/disc came out at 32%. Besides, in the series on Acanthoscelides obtectus [1], the mortality at 70 µg/disc stood at 55%. In addition, in the series on Acanthoscelides obtectus [1], the mortality at 220 µg/disc was found to be 87%. Further, the mortality at 670 µg/disc with Acanthoscelides obtectus [1] was 100%. This molecule also had a mortality at 2000 µg/disc in the series with Acanthoscelides obtectus [1] of 100%. For the same molecule, the mortality at 6000 µg/disc in the series with Acanthoscelides obtectus [1] was found to be 100%. Further, the comparative activity result in the series on Acanthoscelides obtectus [1] (Ib versus Ia) is “more active than enantiomer-pair Ia”. Also, the LD50 expected in the series on T. confusum [5] (harmonic average of the single isomers) is recorded as 139.3 ng/insect. Further, in the series on T. confusum [5] (quotient of expected and measured LD50), the synerg. factor is on record as 2.68. The LD50 measured with T. confusum [5] (topical, abdominal side) is reported as 51.9 ng/insect. Moreover, the Mortality % in the series on A. matricariae (1 ppm) amounted to 0%; in the series with A. matricariae (5 ppm), 0%; in the series with A. matricariae (10 ppm), 0%; with A. matricariae (30 ppm) it was 61.0%; in the series on Acanthoscelides obtectus [6] (dilution 50x), 67%; in the series with Acanthoscelides obtectus [6] (dilution 100x), 53%. For the same molecule, the Mortality % in the series on Acanthoscelides obtectus [6] (dilution 200x) came out at 37%; with Acanthoscelides obtectus [6] (dilution 400x), 20%; in the series on Acanthoscelides obtectus [6] (dilution 800x), 10%; with Acanthoscelides obtectus [6] (dilution 1600x), 3%. In the series on T. confusum [2] (Ib versus Ia), the “synergizability with piperonyl butoxide” value is “can be synergized at a higher level than isomer pair Ia”. Also, the mortality at 25 µg/disc in the series on T. confusum [2] turned out to be 0%. In addition, in the series on T. confusum [2], the mortality at 50 µg/disc was determined as 10%. Besides, the mortality at 100 µg/disc with T. confusum [2] came to 51%. In the series on T. confusum [2], this molecule showed a mortality at 200 µg/disc of 85%. In the series on T. confusum [2], this molecule showed a mortality at 400 µg/disc of 100%. Besides, the mortality at 0.023 µg/larva in the series on Hyphantria cunea (0.023 μg/larvae) was 10%. The mortality at 0.047 µg/larva in the series with Hyphantria cunea (0.047 μg/larvae) stood at 15%. The same molecule gave a mortality at 0.094 µg/larva in the series on Hyphantria cunea (0.094 μg/larvae) of 30%. The molecule also yielded a mortality at 0.188 µg/larva in the series on Hyphantria cunea (0.188 μg/larvae) of 70%. The mortality at 0.375 µg/larva in the series on Hyphantria cunea (0.375 μg/larvae) stood at 80%. In the series on house fly, the LD50 was about 0.64 mg/kg.

Take `CC1(C)C(C=C(Cl)Cl)C1C(=O)OC(C#N)c1cccc(Oc2ccccc2)c1` (stereo not shown) [Ia:Ib = 4:6]: the Mortality % with Acanthoscelides obtectus [3] (dilution 50x, 1440 min) is 70%; with Acanthoscelides obtectus [3] (dilution 100x, 1440 min), 53%; in the series with Acanthoscelides obtectus [3] (dilution 200x, 1440 min), 37%; in the series with Acanthoscelides obtectus [3] (dilution 400x, 1440 min), 30%; in the series on Acanthoscelides obtectus [3] (dilution 800x, 1440 min) it was 17%; with Acanthoscelides obtectus [3] (dilution 1600x, 1440 min), 10%. Further, the “% ratio of paralyzed larvae” value in [4] (8 ppm) was found to be 60%; in series [4] (40 ppm), 75%; in [4] (200 ppm), 100%; in [4] (1000 ppm), 100%.
